Measurements: patent US8053426B2, “Progesterone receptor antagonists” (Bayer Schering Pharma AG, priority 2006, dated 2011)

How the values were obtained:
[1] = biological target: T1, human progesterone receptor A (PR-A) (Homo sapiens, UniProt P06401); experiment: Agonistic activity, MTV-LUC reporter in SK-N-MC cells stably transfected with PR-A; assay type: cell-based; details: 24 hours; for Efficacy, PR-A: relative LUC activity
T1 construct: expressed in transfected cells; host or cells: SK-N-MC human neuroblastoma cells, stably transfected with pRChPR-A-neo and pMMTV-LUC
T1 sequence (P06401 1-769 isoform P06401-2): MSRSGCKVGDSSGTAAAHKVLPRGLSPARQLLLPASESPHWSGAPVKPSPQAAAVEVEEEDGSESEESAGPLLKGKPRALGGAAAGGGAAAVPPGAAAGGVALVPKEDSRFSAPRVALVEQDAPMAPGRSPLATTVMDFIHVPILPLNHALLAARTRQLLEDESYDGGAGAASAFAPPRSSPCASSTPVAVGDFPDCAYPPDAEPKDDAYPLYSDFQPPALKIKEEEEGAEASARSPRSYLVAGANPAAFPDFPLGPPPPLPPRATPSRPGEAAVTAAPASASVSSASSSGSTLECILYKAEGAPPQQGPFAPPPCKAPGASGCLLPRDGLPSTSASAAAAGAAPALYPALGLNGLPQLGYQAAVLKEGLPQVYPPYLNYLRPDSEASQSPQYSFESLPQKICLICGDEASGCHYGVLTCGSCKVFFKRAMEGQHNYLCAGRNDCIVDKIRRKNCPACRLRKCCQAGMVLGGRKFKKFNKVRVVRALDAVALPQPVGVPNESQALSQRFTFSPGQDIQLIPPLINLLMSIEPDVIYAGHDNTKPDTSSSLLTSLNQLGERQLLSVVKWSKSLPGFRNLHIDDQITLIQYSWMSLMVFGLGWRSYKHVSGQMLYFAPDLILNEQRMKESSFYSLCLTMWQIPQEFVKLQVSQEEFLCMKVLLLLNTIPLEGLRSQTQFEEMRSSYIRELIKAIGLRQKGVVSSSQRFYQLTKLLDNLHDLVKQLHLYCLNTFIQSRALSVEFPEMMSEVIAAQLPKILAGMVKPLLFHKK
Description: (§1) SK-N-MC cells (human neuroblastoma cells), stably transfected with plasmids, which express human progesterone receptor B (pRChPR-B-neo) or human progesterone receptor A (pRChPR-A-neo) and a reporter construct (pMMTV-LUC), were incubated for 24 hours, either in the absence (negative control) or in the presence of increasing amounts of 11β-[4-(1,2-dihydroxy-ethyl)phenyl]-20,20,21,21,21-pentafluoro-17-hydroxy-19-nor-17α-pregna-4,9-dien-3-one or 20,20,21,21,21-pentafluoro-17-hydroxy-11β-[4-(hydroxyacetyl)-phenyl]-19-nor-17α-pregna-4,9-dien-3-one (0.01 nmol/l, 0.1 nmol/l, 1 nmol/l, 10 nmol/l, 100 nmol/l and 1 μmol/l), in order to determine the agonistic efficacy. As a positive control of reporter gene induction, the cells were treated with the synthetic gestagen promegestone (0.01 nmol/l, 0.1 nmol/l, 1 nmol/l, 10 nmol/l, 100 nmol/l and 1 μmol/l). To determine the antagonistic activity, the cells were treated with 0.1 nmol/l of promegestone and additionally with increasing amounts of 11β-[4-(1,2-dihydroxyethyl)phenyl]-20,20,21,21,21-pentafluoro-17-hydroxy-19-nor-17α-pregna-4,9-dien-3-one or 20,20,21,21,21-pentafluoro-17-hydroxy-11β-[4-(hydroxyacetyl)phenyl]-19-nor-17α-pregna-4,9-dien-3-one (0.01 nmol/l, 0.1 nmol/l, 1 nmol/l, 10 nmol/l, 100 nmol/l and 1 μmol/l). […] The activity of the LUC reporter gene (LUC=luciferase) was determined in the cell lyzates and measured as RLU (relative light units).

[2] = biological target: T1, human progesterone receptor A (PR-A); experiment: Antagonistic activity against promegestone, MTV-LUC reporter in SK-N-MC cells stably transfected with PR-A; assay type: cell-based; details: for selectivity in respect of one progesterone receptor isoform: PR-A versus PR-B; for selectivity in respect of one progesterone receptor isoform / Efficacy, PR-A / IC50: SK-N-MC cells; for Efficacy, PR-A / IC50: antagonistic activity vs 0.1 nmol/l promegestone, mean ± SD; for IC50: read-out: Potency IC50, PR-A; for times less potent than 11β-(4-acetylphenyl)-20,20,21,21,21-pentafluoro-17-hydroxy-19-nor-17α-pregna-4,9-dien-3-one at the progesterone receptors: antagonistic potency, figures match the ratio of the PR-A IC50 values
Description: as §1

[3] = Metabolic stability in human liver microsomes (HLM); assay type: in vitro ADME; details: 60 minutes, 37° C.
Description: Human liver microsomes (HLM) were used to assess the metabolic stability of substances of general formula I.
The incubations were carried out in duplicate with HLM and an NADPH-generating system using a shaker bath at 37° C. The incubation mixture (consisting of cofactor solution, potassium phosphate buffer and microsome preparation) was freshly prepared according to the Table below.
(§2) The incubation volume was 0.25 ml. The incubation mixture was preincubated for three minutes at 37° C. The reaction was started by the addition of the test substance (final concentration 50 μM). The reaction was ended after an incubation time of 60 minutes by the addition of 250 μl of methanol and the mixture was then centrifuged to pellet the protein. The samples were stored at −18° C. for subsequent RP-HPLC analysis.
as §2, with “concentration 10” for “concentration 50”

[4] = biological target: T2, human progesterone receptor B (PR-B) (Homo sapiens, UniProt P06401); experiment: Antagonistic activity against promegestone, MTV-LUC reporter in SK-N-MC cells stably transfected with PR-B; assay type: cell-based; details: antagonistic activity vs 0.1 nmol/l promegestone, mean ± SD; for IC50: read-out: Potency IC50, PR-B
T2 construct: expressed in transfected cells; host or cells: SK-N-MC human neuroblastoma cells, stably transfected with pRChPR-B-neo and pMMTV-LUC
T2 sequence (P06401 1-933): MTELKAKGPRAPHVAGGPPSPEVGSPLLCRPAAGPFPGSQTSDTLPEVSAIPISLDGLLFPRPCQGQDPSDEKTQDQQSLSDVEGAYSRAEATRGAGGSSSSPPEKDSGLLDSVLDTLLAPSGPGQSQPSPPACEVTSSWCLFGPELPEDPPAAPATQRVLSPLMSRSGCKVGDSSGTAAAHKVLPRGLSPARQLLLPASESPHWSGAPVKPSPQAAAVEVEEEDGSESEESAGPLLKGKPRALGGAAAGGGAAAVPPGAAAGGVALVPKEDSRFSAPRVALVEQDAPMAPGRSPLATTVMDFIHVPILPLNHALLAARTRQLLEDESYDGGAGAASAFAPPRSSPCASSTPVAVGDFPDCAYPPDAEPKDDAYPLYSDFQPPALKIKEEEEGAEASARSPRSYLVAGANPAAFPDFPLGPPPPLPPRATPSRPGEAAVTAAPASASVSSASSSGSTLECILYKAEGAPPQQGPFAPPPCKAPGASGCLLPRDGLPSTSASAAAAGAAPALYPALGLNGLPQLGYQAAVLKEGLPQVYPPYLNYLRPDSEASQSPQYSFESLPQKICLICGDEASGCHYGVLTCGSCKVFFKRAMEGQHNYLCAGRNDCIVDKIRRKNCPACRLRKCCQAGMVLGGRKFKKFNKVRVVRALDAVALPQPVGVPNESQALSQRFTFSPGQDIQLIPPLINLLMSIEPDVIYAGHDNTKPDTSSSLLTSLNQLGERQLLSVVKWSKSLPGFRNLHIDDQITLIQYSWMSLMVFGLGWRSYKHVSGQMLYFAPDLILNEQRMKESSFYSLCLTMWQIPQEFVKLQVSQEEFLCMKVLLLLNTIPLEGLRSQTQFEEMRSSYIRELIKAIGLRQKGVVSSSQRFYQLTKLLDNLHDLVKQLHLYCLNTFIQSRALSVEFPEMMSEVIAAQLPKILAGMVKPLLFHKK
Description: as §1

pregnant rats = experiment: Abortion test on female rats; assay type: in vivo, rat; details: 1.5 mg/kg subcutaneously daily d5-d7 p.c., autopsy d9 p.c.
Description: The antigestagenic action of the progesterone receptor antagonists according to the invention was tested on pregnant rats (6 rats per group) on days 5 to 7 post coitum under conventional housing and feeding conditions.
After successful copulation, the pregnant animals (presence of sperm in the vaginal smear on day 1 of pregnancy=d1 p.c.) were randomized and divided up into the treatment group and the control group. Each animal was then injected subcutaneously with 1.5 mg/kg of the test substance (11β-[4-(1,2-Dihydroxyethyl)phenyl]-20,20,21,21,21-pentafluoro-17-hydroxy-19-nor-17α-pregna-4,9-dien-3-one according to Example 1 or 20,20,21,21,21-pentafluoro-17-hydroxy-11β-[4-(hydroxyacetyl)phenyl]-19-nor-17α-pregna-4,9-dien-3-one according to Example 3) or 1.0 ml/kg of vehicle (benzyl benzoate/castor oil: 1+4[v/v]) daily from day 5 to day 7 (d5-d7 p.c.).
The autopsy was performed on day 9 (d9 p.c.). As the parameter of antigestagenic action, the uterus was examined for the presence of implantation sites. The complete absence of implantation sites as well as the presence of pathological, hemorrhagic or otherwise abnormal implantation sites on day 9 (d9 p.c.) were evaluated as abortions.

35-day-old rabbits = experiment: Determination of the McPhail index on the rabbit; assay type: in vivo; details: 3 mg/kg/d test substance + 0.2 mg/kg/d progesterone s.c. day 7 to 10, autopsy day 11, 1=no, 4=maximum glandular differentiation
Description: The antigestagenic efficacy of the progesterone receptor antagonists according to the invention was tested on 35-day-old rabbits under conventional housing and feeding conditions.
As a preparatory measure, the animals were treated subcutaneously with 5.0 μg/kg/d with 17β-estradiol from day 1 to day 4. To determine the antigestagenic efficacy, the animals were treated subcutaneously from day 7 to day 10 with 0.2 mg/kg/d of progesterone and 3 mg/kg/d of the test substance (11β-[4-(1,2-Dihydroxyethyl)phenyl]-20,20,21,21,21-pentafluoro-17-hydroxy-19-nor-17α-pregna-4,9-dien-3-one according to Example 1 or 20,20,21,21,21-pentafluoro-17-hydroxy-11β-[4-(hydroxyacetyl)phenyl]-19-nor-17α-pregna-4,9-dien-3-one according to Example 3) simultaneously. The vehicle used was a mixture of benzyl benzoate and castor oil in a ratio of 1+4 (v/v).
The autopsy was performed on day 11 after the start of treatment. The uteri were removed and fixed for histology. The McPhail index (degree of glandular differentiation) was determined by means of light microscopy (evaluation: 1=no glandular differentiation; 4=maximum glandular differentiation) as the parameter of antigestagenic efficacy (inhibition of the glandular differentiation caused by progesterone).

[5] = biological target: T2, human progesterone receptor B (PR-B); experiment: Agonistic activity, MTV-LUC reporter in SK-N-MC cells stably transfected with PR-B; assay type: cell-based; details: 24 hours; for Efficacy, PR-B: relative LUC activity
Description: as §1

[6] = HLM 1.0 mg/ml, test substance 50 μM

SMILES	Efficacy, PR-A [1]	selectivity in respect of one progesterone receptor isoform [2]	Efficacy, PR-A [2] [%]	IC50 [2] [nM]	times less potent than 11β-(4-acetylphenyl)-20,20,21,21,21-pentafluoro-17-hydroxy-19-nor-17α-pregna-4,9-dien-3-one at the progesterone receptors [2]	recovered in the supernatant (RP-HPLC) [3, 6]	Efficacy, PR-B [4] [%]	IC50 [4] [nM]	Abortion rate (pregnant rats) [%]	McPhail index [median] (35-day-old rabbits)	Efficacy, PR-B [5]	recovered in the supernatant (RP-HPLC) ([3]; HLM 0.4 mg/ml, test substance 10 μM) [%]	EC50 ([1]; mean ± SD, read-out: Potency EC50, PR-A) [nM]	EC50 ([5]; mean ± SD, read-out: Potency EC50, PR-B) [nM]
C[C@]12C[C@H](c3ccc(C(O)CO)cc3)C3=C4CCC(=O)C=C4CC[C@H]3[C@@H]1CC[C@@]2(O)C(F)(F)C(F)(F)F (mixture of isomers) [Example 1, 11β-[4-(1,2-dihydroxyethyl)phenyl]-20,20,21,21,21-pentafluoro-17-hydroxy-19-nor-17α-pregna-4,9-dien-3-one]	no effect	Neither compound exhibits any selectivity	100 ± 0	1.87 ± 0.23	about 130 times	about 70%	100 ± 0	3.47 ± 0.46	100	1.0	no effect			
CC(=O)c1ccc([C@H]2C[C@@]3(C)[C@@H](CC[C@@]3(O)C(F)(F)C(F)(F)F)[C@@H]3CCC4=CC(=O)CCC4=C32)cc1 [11β-(4-acetylphenyl)-20,20,21,21,21-pentafluoro-17-hydroxy-19-nor-17α-pregna-4,9-dien-3-one, reference compound]			100 ± 0	0.014 ± 0.01			100 ± 0	0.02 ± 0.01				60		
C[C@]12C[C@H](c3ccc(C(=O)CO)cc3)C3=C4CCC(=O)C=C4CC[C@H]3[C@@H]1CC[C@@]2(O)C(F)(F)C(F)(F)F [Example 3, 20,20,21,21,21-pentafluoro-17-hydroxy-11β-[4-(hydroxyacetyl)phenyl]-19-nor-17α-pregna-4,9-dien-3-one]	no effect	Neither compound exhibits any selectivity	100 ± 0	0.18 ± 0.06	about 13 times	about 80%	100 ± 0	0.28 ± 0.08	100	1.0	no effect			
CCC(=O)[C@@]1(C)CC[C@H]2[C@@H]3CCC4=CC(=O)CCC4=C3CC[C@@]21C [Promegestone, promegestone, reference compound]	100%										100%		0.23 ± 0.03	0.03
